Source: patent publication US6133311A, “Method for preventing or treating elevated blood lipid level-related diseases by administering natural phenolic compounds” (priority 1998, dated 2000)

Biological target: T1, HMG-CoA reductase (Rattus norvegicus, UniProt P51639)
T1 construct: from tissue; host or cells: rat liver microsomes
T1 sequence (P51639 1-887): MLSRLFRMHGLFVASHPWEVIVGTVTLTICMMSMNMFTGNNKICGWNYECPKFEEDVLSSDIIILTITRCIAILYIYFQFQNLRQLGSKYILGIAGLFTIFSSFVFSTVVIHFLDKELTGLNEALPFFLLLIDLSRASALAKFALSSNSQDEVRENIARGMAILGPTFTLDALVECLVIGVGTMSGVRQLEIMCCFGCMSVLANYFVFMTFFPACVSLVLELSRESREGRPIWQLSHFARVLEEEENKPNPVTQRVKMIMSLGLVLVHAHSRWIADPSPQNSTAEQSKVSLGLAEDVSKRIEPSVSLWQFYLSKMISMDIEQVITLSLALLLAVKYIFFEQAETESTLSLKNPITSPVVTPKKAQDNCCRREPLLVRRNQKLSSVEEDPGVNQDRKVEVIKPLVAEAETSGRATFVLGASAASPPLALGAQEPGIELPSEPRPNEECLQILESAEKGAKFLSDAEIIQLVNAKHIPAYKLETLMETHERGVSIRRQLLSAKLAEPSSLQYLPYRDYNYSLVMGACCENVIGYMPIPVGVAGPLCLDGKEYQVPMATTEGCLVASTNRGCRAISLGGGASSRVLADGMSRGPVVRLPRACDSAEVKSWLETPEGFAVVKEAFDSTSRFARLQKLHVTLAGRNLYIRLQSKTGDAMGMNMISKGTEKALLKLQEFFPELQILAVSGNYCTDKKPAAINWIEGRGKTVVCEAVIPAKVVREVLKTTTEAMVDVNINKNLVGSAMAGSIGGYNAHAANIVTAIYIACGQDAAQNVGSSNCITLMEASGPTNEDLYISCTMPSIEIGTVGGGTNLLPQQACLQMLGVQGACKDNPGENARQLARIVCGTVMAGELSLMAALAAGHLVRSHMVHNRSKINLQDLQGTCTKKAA
Test: HMG-CoA reductase inhibition in liver microsomes of fed rats
Format: biochemical
Conditions: liver microsomes of rats fed 0.1% compound, vs Control
Experimental: Activity of tannin or gallic acid in HMG-CoA Reductase Inhibition
In order to determine the activity of HMG-CoA reductase, Hulcher's method was employed after some modification (see J. Lipid Res., 14, 625-641 (1973)). In this method, the concentration of the coenzyme-A (CoA-SH), which is produced when HMG-COA is reduced to a mevalonate salt by the action of HMG-COA reductase, is determined by spectroscopy and the activity of HMG-CoA reductase is calculated therefrom.
(Step 1) Preparation of microsomes
3 g of liver tissue taken from each group of rats of Example 2 was washed successively with 100 ml of a cold Saline (0.15M NaCl) and 100 ml of a cold buffer solution A (0.1M triethanolamine, HCl/0.2M EDTA/2 mM dithiothreitol (DTT)). The cold buffer solution A was added to the liver tissue in an amount of 2 ml per 1 g of the liver tissue and the mixture was homogenized with a homogenizer. […]
Then, the reactant was mixed with 20 μl of DTNB buffer solution (3mM DTNB/0.1M triethanolamine/0.2M EDTA, pH 7.4) and the absorbance of the mixture was determined at 412 nm to calculate the amount of CoA-SH (activity of HMG-COA reductase).
The extent of inhibition of HMG-CoA reductase activity by tannin and gallic acid were calculated based on the above result.

O=C(O)c1cc(O)c(O)c(O)c1 [Gallic acid, gallic acid]
Inhibition of HMG-CoA reductase activity: 6.0%

tannin
Inhibition of HMG-CoA reductase activity: 23.5%
